Source: patent US20240317777A1, “NOVEL MACROCYCLIC AMINOPYRAZOLE COMPOUNDS AS CDK2 INHIBITORS” (Accutar Biotechnology Inc., priority 2023, published 2024)
pIC50: −log10 of the molar value. Like-named read-outs stand apart in the source and are kept apart here.

What was measured:
CDK2-CYCLIN E1 = CDK2-CYCLIN E1 (Homo sapiens, UniProt P24941); assay: CDK protein kinase inhibition by ADP-Glo assay, CDK2-CYCLIN E1; type: biochemical; settings: read-out: CDK2-CYCLINE, IC50
Method in brief: (§1)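 Compounds were incubated at 22° C with the CDK/cyclin complex, peptide substrate, 1000 μM ATP and 5 mM MgCl2. The reaction was then quenched and ADP formation quantified by luminescence using ADP-Glo reagents.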

CDK6-CYCLIN D3 = CDK6-CYCLIN D3 (Homo sapiens, UniProt Q00534); assay: CDK protein kinase inhibition by ADP-Glo assay, CDK6-CYCLIN D3; type: biochemical; settings: for pIC50: read-out: CDK6-CYCLIND3, IC50; for CDK2 Fold selectivity, CDK6: CDK2 versus CDK6
Method in brief: as §1

CDK1-CYCLIN B = CDK1-CYCLIN B (Homo sapiens, UniProt P06493); assay: CDK protein kinase inhibition by ADP-Glo assay, CDK1-CYCLIN B; type: biochemical; settings: for pIC50: read-out: CDK1-CYCLINB, IC50; for CDK2 Fold selectivity, CDK1: CDK2 versus CDK1
Method in brief: as §1

CDK9-CYCLIN T1 = CDK9-CYCLIN T1 (Homo sapiens, UniProt P50750); assay: CDK protein kinase inhibition by ADP-Glo assay, CDK9-CYCLIN T1; type: biochemical; settings: for pIC50: read-out: CDK9-CYCLINT1, IC50; for CDK2 Fold selectivity, CDK9: CDK2 versus CDK9
Method in brief: as §1

[1] = tested on: Phospho-Rb (Ser807/811) in OVCAR3 cells; assay: Phospho-Rb expression inhibition in OVCAR3 cells quantified by In Cell Western; type: cell-based; settings: Homo sapiens, OVCAR-3, 24 hours, read-out: OVCAR-3 pRb IC50
Method in brief: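 In-cell western: after 24 h compound exposure at 37° C, fixed OVCAR3 cells co-stained for pRb Ser807/811 (800 nm channel) and total Rb (680 nm channel), imaged by LI-COR Odyssey.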

[2] = tested on: CCNE1-amplified OVCAR3 cells; assay: Cell growth inhibition of CCNE1-amplified OVCAR3 cells (CellTiter-Glo); type: cell-based; settings: Homo sapiens, OVCAR-3, 144 h, 6 days
Method in brief: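 Growth read-out was CellTiter-Glo luminescence, taken after 10 min at room temperature at the end of a 6-day compound exposure at 37 °C. Compounds were diluted from DMSO stocks across various concentrations.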

CDK4-CYCLIN D1 = CDK4-CYCLIN D1 (Homo sapiens, UniProt P11802); assay: CDK protein kinase inhibition by ADP-Glo assay, CDK4-CYCLIN D1; type: biochemical; settings: for pIC50: read-out: CDK4-CYCLIND1, IC50; for CDK2 Fold selectivity, CDK4: CDK2 versus CDK4
Method in brief: as §1

CCNE1-normal SKOV3 cells = assay: Cell growth inhibition of CCNE1-normal SKOV3 cells (CellTiter-Glo); type: cell-based; settings: Homo sapiens, SK-OV-3, 144 h, 6 days
Method in brief: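 Growth was measured by CellTiter-Glo luminescence after 6 days' compound exposure at 37 °C. Cells were plated one day before dosing at 1000 per well in medium with 10% FBS, and compounds were diluted from DMSO stocks.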

[3] = Table 35, recombinant CDK kinase

Sequence of CDK9-CYCLIN T1 (P50750 whole entry): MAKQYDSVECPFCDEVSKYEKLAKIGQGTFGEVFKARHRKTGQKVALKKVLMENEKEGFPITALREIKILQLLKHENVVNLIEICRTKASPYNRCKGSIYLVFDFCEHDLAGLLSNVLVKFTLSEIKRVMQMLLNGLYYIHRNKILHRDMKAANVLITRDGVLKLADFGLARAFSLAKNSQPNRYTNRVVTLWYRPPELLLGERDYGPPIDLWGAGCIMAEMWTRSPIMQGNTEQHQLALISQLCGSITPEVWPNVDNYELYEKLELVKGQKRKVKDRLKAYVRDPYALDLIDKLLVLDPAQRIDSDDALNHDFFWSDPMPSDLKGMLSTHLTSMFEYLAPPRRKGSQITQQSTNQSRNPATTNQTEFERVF
Sequence of CDK9-CYCLIN T1 (O60563 whole entry partner): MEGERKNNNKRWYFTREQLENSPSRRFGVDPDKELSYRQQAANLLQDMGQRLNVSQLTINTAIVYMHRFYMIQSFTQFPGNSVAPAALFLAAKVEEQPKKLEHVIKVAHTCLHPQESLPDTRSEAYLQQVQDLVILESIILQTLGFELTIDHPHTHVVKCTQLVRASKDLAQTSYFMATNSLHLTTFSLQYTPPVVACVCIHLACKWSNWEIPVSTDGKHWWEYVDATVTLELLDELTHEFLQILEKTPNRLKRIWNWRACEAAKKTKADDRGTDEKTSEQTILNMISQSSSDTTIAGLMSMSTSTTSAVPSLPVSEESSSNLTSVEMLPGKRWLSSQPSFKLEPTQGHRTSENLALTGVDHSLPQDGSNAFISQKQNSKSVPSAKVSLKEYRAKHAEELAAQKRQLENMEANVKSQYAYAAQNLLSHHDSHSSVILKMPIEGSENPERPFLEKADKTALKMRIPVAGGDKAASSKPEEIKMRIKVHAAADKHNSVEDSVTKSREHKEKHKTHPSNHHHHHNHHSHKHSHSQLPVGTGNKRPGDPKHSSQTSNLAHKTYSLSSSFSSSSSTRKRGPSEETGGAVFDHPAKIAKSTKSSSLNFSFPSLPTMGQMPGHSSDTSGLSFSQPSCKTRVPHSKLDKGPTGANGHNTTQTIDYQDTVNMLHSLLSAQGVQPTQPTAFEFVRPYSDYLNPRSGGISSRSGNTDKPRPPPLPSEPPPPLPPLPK
Sequence of CDK1-CYCLIN B (P06493 whole entry): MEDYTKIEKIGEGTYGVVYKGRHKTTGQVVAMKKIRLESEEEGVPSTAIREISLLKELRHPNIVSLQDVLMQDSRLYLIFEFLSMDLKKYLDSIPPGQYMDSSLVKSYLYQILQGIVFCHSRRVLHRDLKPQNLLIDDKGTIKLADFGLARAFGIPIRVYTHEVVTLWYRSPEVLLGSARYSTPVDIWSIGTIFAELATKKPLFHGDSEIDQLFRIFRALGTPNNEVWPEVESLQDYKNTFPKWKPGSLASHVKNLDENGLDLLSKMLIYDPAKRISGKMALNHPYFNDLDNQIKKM
Sequence of CDK1-CYCLIN B (P14635 whole entry partner): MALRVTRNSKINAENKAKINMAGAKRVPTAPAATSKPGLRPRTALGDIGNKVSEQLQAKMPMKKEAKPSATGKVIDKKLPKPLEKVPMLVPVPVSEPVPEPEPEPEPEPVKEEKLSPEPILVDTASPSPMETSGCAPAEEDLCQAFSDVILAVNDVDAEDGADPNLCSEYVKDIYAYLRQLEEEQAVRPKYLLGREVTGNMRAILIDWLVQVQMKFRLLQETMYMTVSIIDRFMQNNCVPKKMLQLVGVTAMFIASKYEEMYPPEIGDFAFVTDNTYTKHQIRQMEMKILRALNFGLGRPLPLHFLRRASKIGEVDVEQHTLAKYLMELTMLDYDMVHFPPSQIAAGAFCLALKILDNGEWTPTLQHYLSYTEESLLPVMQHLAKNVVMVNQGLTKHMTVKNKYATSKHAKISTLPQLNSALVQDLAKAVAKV
Sequence of CDK6-CYCLIN D3 (Q00534 whole entry): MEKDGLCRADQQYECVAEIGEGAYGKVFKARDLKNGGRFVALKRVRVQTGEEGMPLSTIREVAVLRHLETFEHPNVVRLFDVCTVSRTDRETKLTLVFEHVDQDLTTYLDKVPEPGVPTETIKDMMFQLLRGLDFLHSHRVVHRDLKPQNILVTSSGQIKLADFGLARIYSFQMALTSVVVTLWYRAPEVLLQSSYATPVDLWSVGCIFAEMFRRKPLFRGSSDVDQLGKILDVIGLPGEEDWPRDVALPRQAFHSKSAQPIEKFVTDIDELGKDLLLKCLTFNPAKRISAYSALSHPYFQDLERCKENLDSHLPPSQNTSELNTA
Sequence of CDK6-CYCLIN D3 (P30281 whole entry partner): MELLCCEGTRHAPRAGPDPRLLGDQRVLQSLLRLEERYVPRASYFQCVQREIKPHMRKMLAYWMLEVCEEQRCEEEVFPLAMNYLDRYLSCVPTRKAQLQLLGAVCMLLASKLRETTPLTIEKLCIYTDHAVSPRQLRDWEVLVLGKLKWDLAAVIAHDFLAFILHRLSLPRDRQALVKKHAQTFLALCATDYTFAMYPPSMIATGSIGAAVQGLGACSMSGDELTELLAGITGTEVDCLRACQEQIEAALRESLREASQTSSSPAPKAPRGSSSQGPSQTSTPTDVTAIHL
Sequence of CDK4-CYCLIN D1 (P11802 whole entry): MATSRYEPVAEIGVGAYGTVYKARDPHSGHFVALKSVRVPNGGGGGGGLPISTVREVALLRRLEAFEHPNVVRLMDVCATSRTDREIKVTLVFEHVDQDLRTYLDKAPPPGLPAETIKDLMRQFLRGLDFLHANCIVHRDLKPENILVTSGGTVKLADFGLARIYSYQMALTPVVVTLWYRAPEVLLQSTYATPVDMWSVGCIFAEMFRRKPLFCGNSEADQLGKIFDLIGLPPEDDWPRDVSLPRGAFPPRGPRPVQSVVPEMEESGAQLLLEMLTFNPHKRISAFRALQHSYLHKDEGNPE
Sequence of CDK4-CYCLIN D1 (P24385 whole entry partner): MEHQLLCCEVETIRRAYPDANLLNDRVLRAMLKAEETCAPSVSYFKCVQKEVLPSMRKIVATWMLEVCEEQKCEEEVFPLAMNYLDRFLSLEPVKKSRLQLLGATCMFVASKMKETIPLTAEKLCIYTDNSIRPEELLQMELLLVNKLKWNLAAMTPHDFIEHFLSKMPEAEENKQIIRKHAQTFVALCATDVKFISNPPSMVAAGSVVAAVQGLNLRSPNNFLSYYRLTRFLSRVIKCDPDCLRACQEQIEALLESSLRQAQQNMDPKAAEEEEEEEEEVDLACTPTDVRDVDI

Compound	pIC50 [1]	pIC50 [2]	pIC50 (CDK2-CYCLIN E1; ADP-Glo, 1000 μM ATP, Table 19)	pIC50 (CDK6-CYCLIN D3; ADP-Glo, 1000 μM ATP, Table 19)	CDK2 Fold selectivity, CDK6 (CDK6-CYCLIN D3; Table 20)	pIC50 (CDK1-CYCLIN B; ADP-Glo, 1000 μM ATP, Table 19)	CDK2 Fold selectivity, CDK1 (CDK1-CYCLIN B; Table 20)	pIC50 (CDK9-CYCLIN T1; ADP-Glo, 1000 μM ATP, Table 19)	CDK2 Fold selectivity, CDK9 (CDK9-CYCLIN T1; Table 20)	pIC50 (CDK4-CYCLIN D1; ADP-Glo, 1000 μM ATP, Table 19)	CDK2 Fold selectivity, CDK4 (CDK4-CYCLIN D1; Table 20)	pIC50 (CCNE1-normal SKOV3 cells)	also measured
C[C@@H]1CCCCc2cc(ccn2)Nc2cc(n[nH]2)[C@H]2CC[C@H](C2)OC(=O)N1 [Compound 115, (1^1S,1^3R,9R,Z)-9-methyl-2^1H-12-oxa-3,10-diaza-4(4,2)-pyridina-2(3,5)-pyrazola-1(1,3)-cyclopentanacyclododecaphan-11-one]	7.30 to 8.00	7.30 to 8.00	7.30 to 8.00	7.30 to 8.00	E (E, <20)	7.00 to 7.30	E (E, <20)	6.30 to 7.00	E (E, <20)	7.30 to 8.00	E (E, <20)	5.90 to 6.60	
O=C1NCCCCC(F)(F)c2cc(ccn2)Nc2cc([nH]n2)[C@H]2CC[C@H](C2)O1 [Compound 64, (1^1S,1^3R,Z)-5,5-difluoro-2^1H-12-oxa-3,10-diaza-4(4,2)-pyridina-2(3,5)-pyrazola-1(1,3)-cyclopentanacyclododecaphan-11-one]	≥ 8.70	8.00 to 8.70	≥ 8.00	7.30 to 8.00	D (D, >20 and ≤50)	≥ 8.00	E (E, <20)	7.30 to 8.00	E (E, <20)	7.30 to 8.00	D (D, >20 and ≤50)	6.60 to 7.30	
C[C@H]1CC/C=C/c2cc(ccn2)Nc2cc(n[nH]2)[C@H]2CC[C@H](C2)OC(=O)N1 [Compound 125, (1^1S,1^3R,2^4Z,5E,9S)-9-methyl-2^1H-12-oxa-3,10-diaza-4(4,2)-pyridina-2(3,5)-pyrazola-1(1,3)-cyclopentanacyclododecaphan-5-en-11-one]	8.00 to 8.70	7.30 to 8.00	≥ 8.00	6.30 to 7.00	D (D, >20 and ≤50)	6.30 to 7.00	E (E, <20)	6.30 to 7.00	D (D, >20 and ≤50)	6.30 to 7.00	E (E, <20)	5.90 to 6.60	

Continued, in another order:

pIC50 [1]	pIC50 [2]	pIC50 (CDK2-CYCLIN E1; ADP-Glo, 1000 μM ATP, Table 19)	pIC50 (CDK6-CYCLIN D3; ADP-Glo, 1000 μM ATP, Table 19)	CDK2 Fold selectivity, CDK6 (CDK6-CYCLIN D3; Table 20)	pIC50 (CDK1-CYCLIN B; ADP-Glo, 1000 μM ATP, Table 19)	CDK2 Fold selectivity, CDK1 (CDK1-CYCLIN B; Table 20)	pIC50 (CDK9-CYCLIN T1; ADP-Glo, 1000 μM ATP, Table 19)	CDK2 Fold selectivity, CDK9 (CDK9-CYCLIN T1; Table 20)	pIC50 (CDK4-CYCLIN D1; ADP-Glo, 1000 μM ATP, Table 19)	CDK2 Fold selectivity, CDK4 (CDK4-CYCLIN D1; Table 20)	Compound	pIC50 (CCNE1-normal SKOV3 cells)	also measured
8.00 to 8.70	7.30 to 8.00										C[C@H]1CC(F)(F)COc2cc(ccn2)Nc2cc(n[nH]2)[C@H]2CC[C@H](C2)OC(=O)N1 [Compound 223, (1^1S,1^3R,9S,Z)-7,7-difluoro-9-methyl-2^1H-5,12-dioxa-3,10-diaza-4(4,2)-pyridina-2(3,5)-pyrazola-1(1,3)-cyclopentanacyclododecaphan-11-one]	5.90 to 6.60	pIC50 (CDK2-CYCLIN E1; [3]): ≥ 8.00; pIC50 (CDK6-CYCLIN D3; [3]): 6.30 to 7.00; CDK2 Fold selectivity against CDK6 (CDK6-CYCLIN D3; Table 36, fold selectivity for CDK2 over CDK6, recombinant CDK kinases): C (C, >50 and ≤100); pIC50 (CDK1-CYCLIN B; [3]): 7.00 to 7.30; CDK2 Fold selectivity against CDK1 (CDK1-CYCLIN B; Table 36, fold selectivity for CDK2 over CDK1, recombinant CDK kinases): E (E, <20); pIC50 (CDK9-CYCLIN T1; [3]): 6.30 to 7.00; CDK2 Fold selectivity against CDK9 (CDK9-CYCLIN T1; Table 36, fold selectivity for CDK2 over CDK9, recombinant CDK kinases): C (C, >50 and ≤100); pIC50 (CDK4-CYCLIN D1; [3]): 6.30 to 7.00; CDK2 Fold selectivity against CDK4 (CDK4-CYCLIN D1; Table 36, fold selectivity for CDK2 over CDK4, recombinant CDK kinases): C (C, >50 and ≤100)
7.30 to 8.00	6.60 to 7.30										C[C@H]1CCCNC(=O)O[C@@H]2CC[C@@H](C2)c2cc([nH]n2)Nc2cnnc(c2)O1 [Compound 155, (1^1S,1^3R,6S,Z)-6-methyl-2^1H-5,12-dioxa-3,10-diaza-4(5,3)-pyridazina-2(3,5)-pyrazola-1(1,3)-cyclopentanacyclododecaphan-11-one]	< 5.90	pIC50 (CDK2-CYCLIN E1; ADP-Glo, 1000 μM ATP, Table 25): ≥ 8.00; pIC50 (CDK6-CYCLIN D3; ADP-Glo, 1000 μM ATP, Table 25): 6.30 to 7.00; CDK2 Fold selectivity, CDK6 (CDK6-CYCLIN D3; Table 26): D (D, >20 and ≤50); pIC50 (CDK1-CYCLIN B; ADP-Glo, 1000 μM ATP, Table 25): 7.30 to 8.00; CDK2 Fold selectivity, CDK1 (CDK1-CYCLIN B; Table 26): E (E, <20); pIC50 (CDK9-CYCLIN T1; ADP-Glo, 1000 μM ATP, Table 25): < 6.30; CDK2 Fold selectivity, CDK9 (CDK9-CYCLIN T1; Table 26): B (B, >100 and ≤500); pIC50 (CDK4-CYCLIN D1; ADP-Glo, 1000 μM ATP, Table 25): 6.30 to 7.00; CDK2 Fold selectivity, CDK4 (CDK4-CYCLIN D1; Table 26): D (D, >20 and ≤50)
7.30 to 8.00	7.30 to 8.00										C[C@H]1CCO[C@H](C)c2cc(ccn2)Nc2cc(n[nH]2)[C@H]2CC[C@H](C2)OC(=O)N1 [compound 158]	5.90 to 6.60	pIC50 (CDK2-CYCLIN E1; ADP-Glo, 1000 μM ATP, Table 23): 7.30 to 8.00; pIC50 (CDK6-CYCLIN D3; ADP-Glo, 1000 μM ATP, Table 23): < 6.30; pIC50 (CDK1-CYCLIN B; ADP-Glo, 1000 μM ATP, Table 23): 6.30 to 7.00; pIC50 (CDK9-CYCLIN T1; ADP-Glo, 1000 μM ATP, Table 23): < 6.30; pIC50 (CDK4-CYCLIN D1; ADP-Glo, 1000 μM ATP, Table 23): 6.30 to 7.00
